Earlier results, collected in patent US20060167044A1, “Piperidine derivatives and their use as anti-inflammatory agents” (priority 2004, published 2006).

Tested on: UUO kidneys
Settings: mouse, in vivo

## C[C@@H]1CN(Cc2ccc(F)cc2)CCN1C(=O)COc1ccc(Cl)cc1NC(N)=O [BX 471]
  CD8+/CCR5+ T cells (FACS analysis): comparable reduction
